Measured values as given in US11535597B2, “Photoreactive ligands and uses thereof” (The Scripps Research Institute, priority 2017, dated 2022).
“Also recorded” adds a separate entry of the source.

Experiments:
α-galactosidase (GLA) = biological target: T1, α-galactosidase (GLA) (Homo sapiens, UniProt P06280); experiment: Mapping of FFF probe-modified peptides on α-galactosidase (GLA); assay type: binding; settings: near the active site and a secondary ligand binding site, respectively
T1 construct: endogenous in cells; host or cells: human cells (HEK293T; a subset of probes also in K562)
T1 sequence (P06280 32-429): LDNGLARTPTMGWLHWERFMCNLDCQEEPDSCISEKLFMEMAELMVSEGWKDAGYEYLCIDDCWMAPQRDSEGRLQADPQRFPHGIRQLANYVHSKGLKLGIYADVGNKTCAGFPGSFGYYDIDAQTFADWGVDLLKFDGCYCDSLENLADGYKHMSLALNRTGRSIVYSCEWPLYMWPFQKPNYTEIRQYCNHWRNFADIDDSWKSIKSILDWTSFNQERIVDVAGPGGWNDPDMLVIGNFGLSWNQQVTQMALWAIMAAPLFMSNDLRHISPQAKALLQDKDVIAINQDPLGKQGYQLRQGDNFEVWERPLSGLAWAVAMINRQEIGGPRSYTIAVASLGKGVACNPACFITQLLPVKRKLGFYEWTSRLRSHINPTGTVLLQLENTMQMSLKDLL
Method: Preparation and analysis was adapted from methods previously reported. In brief, for global mapping of fragment probe-modified peptides, separate 10 cm dishes of cells were treated with probes (200-250 μM) in 3.0 mL of DMEM (serum-free) and (if applicable) competitor ligands, proteomes harvested and subjected to click chemistry conditions with either light or heavy isotopically labeled biotin-TEV-azide (10 μL of 5 mM stocks in DMSO, final concentration=100 μM), TCEP, ligand and CuSO4 as detailed above. The samples were allowed to react for 1 h at which point the samples were centrifuged (16,000 g, 5 min, 4° C.). The resulting pellets were sonicated in ice-cold methanol (500 μL) and the resuspended light- and heavy-labeled samples were then combined and centrifuged (16,000 g, 5 min, 4° C.). The pellets were then solubilized in PBS containing 1.2% SDS (1 mL) with sonication and heating (5 min, 95° C.). Samples were transferred to falcon tubes containing DPBS (5 mL), to which a 100 μL of streptavidin-agarose beads slurry was added. After incubation, the beads (3 hr) were pelleted by centrifugation (1,400 g, 3 min) and were washed (2×10 mL PBS and 2×10 mL water). The beads were transferred to eppendorf tubes with 1 mL DPBS, centrifuged (1,400 g, 3 min), and resuspended in PBS containing 6 M urea. To this was added 10 mM DTT (25 μL of a 200 mM stock in water) and the beads were incubated at 65° C. for 15 mins. 20 mM iodoacetamide (25 μL of a 400 mM stock in water) was then added and allowed to react at 37° C. for 30 mins with shaking. The bead mixture was diluted with 900 μL PBS, pelleted by centrifugation (1,400 g, 3 min), and resuspended in 200 μL 2M urea (DPBS) containing trypsin and CaCl2 as described above. The beads were separated from the digest by centrifugation (1,000 g, 1 min), washed (2×1 mL PBS and 2×1 mL water) and then transferred to fresh eppendorfs with 1 mL water. The washed beads were washed once further in 150 μL TEV buffer (50 mM Tris, pH 8, 0.5 mM EDTA, 1 mM DTT) by centrifugation (1,400 g, 3 min) and the resuspended in 150 μL TEV buffer. 5 μL TEV protease (80 μM) was added and the reactions were rotated overnight at 29° C. The TEV digest was separated from the beads by centrifugation (1,400 g, 3 min) and the beads were washed once with water (100 μL). The samples were then acidified to a final concentration of 5% (v/v) formic acid and stored at −80° C. prior to analysis.
The resulting probe-modified peptides were collected for MS analysis, which was performed as described above with differences in the salt bumps applied in the chromatographic gradients which in this case were 0%, 30%, 60%, 90% and 100% NH4OAc (500 μM). […] The isoTOP ratios for probe labeled peptides were quantified using the in-house software CIMAGE. […]

PTGR2 = PTGR2 (Homo sapiens, UniProt Q8N8N7); experiment: PPARγ luciferase reporter assay in PTGR2-transfected HEK293T cells (15-keto-PGE2-dependent); assay type: cell-based; settings: cells recombinantly expressing PTGR2
Method: HEK293T cells were transiently co-transfected using Polyethylenimine (Sigma) with a UAS-Luciferase reporter and a vector expressing the heterologous GAL4 DNA binding domain (DBD) or a GAL4 DNA binding domain::PPARγ ligand binding domain (LBD) chimeric protein, and full-length PTGR2. 24 hr after transfection, cells were treated either with vehicle (DMSO), 15k-PGE2 (20 μM), or fragment compounds. Rosiglitazone (2 μM), a synthetic PPARγ ligand, was used as control. 16 hr after incubation, cells were lysed in Cell Culture Lysis Reagent (Promega) and luciferase activity measured using the Luciferase Assay System (Promega).

Chain of PTGR2 (Q8N8N7 whole entry, the tested form may be a part): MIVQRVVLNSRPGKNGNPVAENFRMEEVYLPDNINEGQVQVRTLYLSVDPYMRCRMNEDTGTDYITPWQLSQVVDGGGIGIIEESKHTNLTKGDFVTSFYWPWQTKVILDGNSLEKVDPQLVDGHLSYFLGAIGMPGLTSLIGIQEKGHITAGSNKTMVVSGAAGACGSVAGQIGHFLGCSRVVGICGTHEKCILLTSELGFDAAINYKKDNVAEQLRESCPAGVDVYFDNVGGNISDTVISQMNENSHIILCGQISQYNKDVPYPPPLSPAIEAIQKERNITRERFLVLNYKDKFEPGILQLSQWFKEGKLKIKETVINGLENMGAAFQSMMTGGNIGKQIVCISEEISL

Row | probe-modified peptides in GLA (α-galactosidase (GLA)) | Compound | 15-keto-PGE2-dependent PPARγ transcriptional activity (PTGR2)
1 | aa 50-68; also recorded: aa 241-253 | C#CCCC1(CCC(=O)Nc2ccc(C3CCNCC3)cc2)N=N1 [probe 9, 3-(3-(But-3-yn-1-yl)-3H-diazirin-3-yl)-N-(4-(piperidin-4-yl)phenyl)propanamide] | 
2 |  | COc1ccccc1N1CCN(C(=O)Cc2ccccc2)CC1 [Compound 22, 1-(4-(2-Methoxyphenyl)piperazin-1-yl)-2-phenylethan-1-one] | increased; also recorded: concentration-dependent rescue
